Assays:
[1] = system: calcium-sensitive potassium channel; details: known from PCT WO99/36068; cited from earlier work
[2] = plasma half life of the drug; details: in vivo

plasma half life [2]: short plasma half life
Structure (SMILES): Cc1c(-c2ccccc2F)[nH]c(N)c1C#N [2-amino-3-cyano-5-(2-fluorophenyl)-4-methylpyrrole]
potassium channel activating effect [1]: bladder-selective calcium-sensitive potassium channel activating effect

Source: patent US7198803B2, “Sustained release oral preparations” (Nippon Shinyaku Co., Ltd., priority 2000, dated 2007)
